Patent US8304236B2, “Modified biotin-binding protein” (Japan Tobacco Inc., priority 2008, dated 2012)
Read-outs that look alike come from different tables or passages of the source.

Key:
streptavidin = settings: similarly measured; WO2008/081938 A1; cited from earlier work
[1] = biological target: tamavidin 2 (TM2) variant TM2 K33TK37A, SEQ ID NO: 12 (Pleurotus cornucopiae, UniProt B9A0T7, K33T/K37A); experiment: Biacore 3000 biotin-binding test of low-pI TM2 (Example 1); settings: BSA-LCLC-Biotin (30.5 Å) immobilized; 25° C.
Sequence of tamavidin 2 (TM2) variant TM2 K33TK37A, SEQ ID NO: 12 (B9A0T7 entry or part of it K33T/K37A): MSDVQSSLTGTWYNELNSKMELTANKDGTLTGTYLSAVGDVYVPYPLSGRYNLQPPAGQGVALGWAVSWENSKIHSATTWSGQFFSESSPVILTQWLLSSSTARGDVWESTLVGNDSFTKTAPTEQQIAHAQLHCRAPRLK
Description: (5) a TM2 mutant in which lysine at position 33 was replaced with threonine, and lysine at position 37 was replaced with alanine (hereinafter referred to as “TM2 K33TK37A”; its nucleotide sequence is listed in SEQ ID NO: 11, and the amino acid sequence in SEQ ID NO: 12);
(§1) HBS-EP (Biacore) was used as a running buffer, and each low-pI TM2 (40 μL) was injected at 25° C. and a flow rate of 20 μL/min for 2 minutes.
(§2) From the resulting sensorgrams, the binding rate constant (ka), the dissociation rate constant (kd), and the dissociation constant (KD) were calculated using an analysis software, BIAevaluation version 4.1.

[2] = biological target: tamavidin 2 (TM2) variant TM2 K73Q, SEQ ID NO: 6 (Pleurotus cornucopiae, UniProt B9A0T7, K73Q); experiment: as above; settings: SA-LC-Biotin (22.4 Å) immobilized; 25° C.
Sequence of tamavidin 2 (TM2) variant TM2 K73Q, SEQ ID NO: 6 (B9A0T7 entry or part of it K73Q): as the sequence (B9A0T7 entry or part of it K33T/K37A) above, with T33K, A37K, K73Q counted along it
Description: (2) a TM2 mutant in which lysine at position 73 was replaced with glutamine (hereinafter referred to as “TM2 K73Q”; its nucleotide sequence is listed in SEQ ID NO: 5, and the amino acid sequence in SEQ ID NO: 6);
as §1, §2

[3] = biological target: T1, tamavidin 2 (TM2), wild type, SEQ ID NO: 2, Pleurotus cornucopiae (Pleurotus cornucopiae, UniProt B9A0T7); settings: WO2008/081938 A1; cited from earlier work
T1 sequence (B9A0T7 1-141): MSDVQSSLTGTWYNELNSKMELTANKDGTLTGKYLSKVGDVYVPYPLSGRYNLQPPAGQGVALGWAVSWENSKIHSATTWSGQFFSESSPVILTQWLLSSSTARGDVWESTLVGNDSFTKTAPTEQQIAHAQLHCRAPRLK

[4] = biological target: tamavidin 2 (TM2) variant TM2 K141E, SEQ ID NO: 10 (Pleurotus cornucopiae, UniProt B9A0T7, K141E); experiment: Biacore 3000 biotin-binding test of low-pI TM2 (Example 1); settings: BSA-LCLC-Biotin (30.5 Å) immobilized; 25° C.
Sequence of tamavidin 2 (TM2) variant TM2 K141E, SEQ ID NO: 10 (B9A0T7 entry or part of it K141E): as the sequence (B9A0T7 entry or part of it K33T/K37A) above, with T33K, A37K, K141E counted along it
Description: (4) a TM2 mutant in which lysine at position 141 was replaced with glutamic acid (hereinafter referred to as “TM2 K141E; its nucleotide sequence is listed in SEQ ID NO: 9, and the amino acid sequence in SEQ ID NO: 10);
as §1, §2

[5] = biological target: T1, tamavidin 2 (TM2), wild type, SEQ ID NO: 2, Pleurotus cornucopiae; experiment: as above; settings: 25° C.
Description: as §1, §2

[6] = biological target: tamavidin 2 (TM2) variant TM2 K33TK37AR104E, SEQ ID NO: 14 (Pleurotus cornucopiae, UniProt B9A0T7, K33T/K37A/R104E); experiment: as above; settings: BSA-LCLC-Biotin (30.5 Å) immobilized; 25° C.
Sequence of tamavidin 2 (TM2) variant TM2 K33TK37AR104E, SEQ ID NO: 14 (B9A0T7 entry or part of it K33T/K37A/R104E): as the sequence (B9A0T7 entry or part of it K33T/K37A) above, with R104E counted along it
Description: as §1, §2

[7] = biological target: tamavidin 2 (TM2) variant TM2 K26A, SEQ ID NO: 4 (Pleurotus cornucopiae, UniProt B9A0T7, K26A); experiment: as above; settings: SA-LC-Biotin (22.4 Å) immobilized; 25° C.
Sequence of tamavidin 2 (TM2) variant TM2 K26A, SEQ ID NO: 4 (B9A0T7 entry or part of it K26A): as the sequence (B9A0T7 entry or part of it K33T/K37A) above, with K26A, T33K, A37K counted along it
Description: (1) a TM2 mutant in which lysine at position 26 was replaced with alanine (hereinafter referred to as “TM2 K26A”; its nucleotide sequence is listed in SEQ ID NO: 3 and the amino acid sequence in SEQ ID NO: 4);
as §1, §2

[8] = biological target: tamavidin 2 (TM2) variant TM2 R104E, SEQ ID NO: 8 (Pleurotus cornucopiae, UniProt B9A0T7, R104E); experiment: as above; settings: BSA-LCLC-Biotin (30.5 Å) immobilized; 25° C.
Sequence of tamavidin 2 (TM2) variant TM2 R104E, SEQ ID NO: 8 (B9A0T7 entry or part of it R104E): as the sequence (B9A0T7 entry or part of it K33T/K37A) above, with T33K, A37K, R104E counted along it
Description: (3) a TM2 mutant in which arginine at position 104 was replaced with glutamic acid (hereinafter referred to as “TM2 R104E; its nucleotide sequence is listed in SEQ ID NO: 7, and the amino acid sequence in SEQ ID NO: 8);
as §1, §2

[9] = biological target: T1, tamavidin 2 (TM2), wild type, SEQ ID NO: 2, Pleurotus cornucopiae; experiment: Biacore 3000 biotin binding test (Example 3); settings: Biotin-BSA (22.4 Å) immobilized
Description: TM2 and HALU TM2 used as analytes were prepared by purification with 2-iminobiotin agarose in accordance with a common method and dialysis with 20MM KPi (pH 7) overnight. The analytes were each adjusted to about 50 μg/mL in 10 mM acetate buffer (pH 5, Biacore).
The immobilization of the ligand and measurement and analysis of specific interaction with the analytes were conducted as in paragraph 2-7-2).

[10] = system: tamavidin 2 (TM2) variant TM2 D40N, SEQ ID NO: 20; experiment: Biacore 3000 biotin-binding test (Example 2); parameters: species or system Pleurotus cornucopiae; settings: Biotin-LC-BSA
Description: As described above, a TM2 mutant in which aspartic acid at position 40 was replaced with asparagine (hereinafter referred to as “TM2 D40N”; its nucleotide sequence SEQ ID NO: 19, and the amino acid sequence in SEQ ID NO: 20) was constructed.
The solution was put into a dialysis tube (MWCO 6-8,000) and was dialyzed with 50 mM sodium carbonate (pH 6.7) at 4° C. overnight.
The amount for immobilization was adjusted to about 200 RU.
Accordingly, seven step measurement (3.125, 6.25, […], 25, 50, 100, and 200 nM) was conducted from the lowest concentration, without recycling steps. […] The measurement was performed at 25° C. The resulting sensorgrams were subjected to reaction kinetics analysis using analysis software BIAevaluation ver. 4.1 with a 1:1 binding model to calculate the binding rate constant (ka) and the dissociation rate constant (kd). The dissociation constant (KD) was determined from kd/ka. In the case where no recycling step is employed, the Rmax (maximum amount of binding analyte) decreases at each measurement. Accordingly, in the analysis, the Rmax was calculated by conducting local fitting for each concentration, and only the data of analyte concentrations that were approximated to the 1:1 binding model was employed.

[11] = biological target: tamavidin 2 (TM2) variant TM2 R104EK141E, SEQ ID NO: 16 (Pleurotus cornucopiae, UniProt B9A0T7, K141E/R104E); experiment: Biacore 3000 biotin-binding test of low-pI TM2 (Example 1); settings: SA-LC-Biotin (22.4 Å) immobilized; 25° C.
Sequence of tamavidin 2 (TM2) variant TM2 R104EK141E, SEQ ID NO: 16 (B9A0T7 entry or part of it R104E/K141E): as the sequence (B9A0T7 entry or part of it K33T/K37A) above, with T33K, A37K, R104E, K141E counted along it
Description: (7) a TM2 mutant in which arginine at position 104 was replaced with glutamic acid, and lysine at position 141 was replaced with glutamic acid (hereinafter referred to as “TM2 R104EK141E”; its nucleotide sequence is listed in SEQ ID NO: 15, and the amino acid sequence in SEQ ID NO: 16).
as §1, §2

## O=C(O)CCCC[C@@H]1SC[C@@H]2NC(=O)N[C@@H]21 [biotin, D-[(+)-cis-hexahydro-2-oxo-1H-thieno-(3,4)-imidazole-4-valerate]]
streptavidin
  binding rate constant (ka): 2.28e+06 M⁻¹ s⁻¹
  dissociation rate constant (kd): 2.52e-06 s⁻¹
[1]
  binding rate constant (ka): 2.5 × 10^5
[2]
  binding rate constant (ka): 5.9 × 10^5
[3]
  binding rate constant (ka): 919000 M⁻¹ s⁻¹
  dissociation rate constant (kd): 6.83e-06 s⁻¹
[4]
  binding rate constant (ka): 5.8 × 10^5
[5]; BSA-LCLC-Biotin (30.5 Å) immobilized
  binding rate constant (ka): 9.2 × 10^5
[5]; SA-LC-Biotin (22.4 Å) immobilized
  binding rate constant (ka): 9.9 × 10^5
[6]
  binding rate constant (ka): 6.3 × 10^5
[7]
  binding rate constant (ka): 5.0 × 10^5
[8]
  binding rate constant (ka): 5.8 × 10^5
[9]
  binding rate constant (ka): 9.9 × 10^5
[10]
  change of binding rate constant (ka) compared to TM2: increased
  change of dissociation rate constant (kd) compared to TM2: decreased
[11]
  binding rate constant (ka): 1.2 × 10^6
